# Measured values as given in patent publication US20120128754A1, “TREATMENT OF EYE DISCOMFORT BY TOPICAL ADMINISTRATION OF A COOLING AGENT TO THE EXTERNAL SURFACE OF THE EYELID” (priority 2009, published 2012).
# Experiments:
# [1] = system: closed eyelids; test: Eye wipe test: cooling sensations after wiping test solution over closed eyelids; type: in vivo, human; conditions: for cooling potency relative to CPS-030: in vivo; for quality of cooling sensation: CPS-369 1 and 2 mg/mL, CPS-160 2 mg/mL, CPS-030 1, 2, 4, 8 mg/mL
# Method: The general procedure for testing was to weigh an active ingredient and to disperse it within a saline solution (i.e., Bausch & Lomb, Sensitive Eyes Plus Saline Solution) at stock concentrations of 10 to 20 mg/mL. Test solutions were further diluted with isotonic saline. For single assays, a 1 mL scaled pipette was used to dispense 0.8 to 1 mL of test solution onto a sterile 2″×2″ (5 cm×5 cm) pad, made of rayon-polyester formed fabric (Walgreens Sterile Gauze Pads) weighing on average 285±9 mg.
# In the next trials, the wet pad was wiped twice over the closed eyelids of each eye from the medial to the lateral canthus. By subtraction, the loss of weight of the pad averaged 32±1 mg. Thus, each eye received ˜16 μL of the test solution per eye. For a 1 mg/mL solution this was equivalent to ˜16 μg per eye.
# The presence of cooling sensations was recorded at 2 and 5 minutes after wiping and at 5 minute intervals thereafter. The intensity of the subjective eye sensation was rated as 0, 1, 2 or 3 with: 0 as no change; 1 as slight coolness or cold; 2 as clear-cut signal of coolness or cold; and 3 as comfortable and soothing sensations of cooling or cold. Recording was continued until two successive zeroes were obtained. The data were plotted using SigmaPlot™ (Systat Software, Point Richmond Calif.).
# The results for compound CPS-030 are illustrated in FIG. 1, and reflect the averaged values of 6 to 8 separate trials in the same individual.
# FIG. 1 is a graph of cooling intensity versus hours after application of CPS-030 with eye wipes for four dosages (128 μg, 64 μg, 32 μg, and 16 μg; per eye), and illustrates the dose-response data for CPS-030 on cooling sensations after application with eye wipes. The dose reported in μg is per eye, based on solutions of 1.0, 2.0, 4.0 and 8.0 mg of CPS-030 per mL of saline, applied in a volume of 16 μL per eye. […] Confirmatory trials of cooling action for CPS-030 were obtained in 4 individuals.
# [2] = Observed solubility in vehicle; type: physicochemical; conditions: for solubility in 1 or 2% ethanol-water solution: higher concentrations not achievable without more ethanol
# Excerpt: Wei, 2008 describes delivery of cooling compounds to the skin using a towelette. The wiping of the towelette across skin results in delivery of dermatologically active ingredient(s), meaning that the skin is substantially medicated. […] An ethanol/water mixture with an ethanol concentration of about 5 wt % is required in order to dissolve enough of these compounds to provide a sufficient degree of cooling to relieve eye discomfort; however, at this concentration the ethanol is irritating to the eye surface.
# (§1) 2-[((1R,2S,5R)-2-isopropyl-5-methyl-cyclohexanecarbonyl)-amino]-acetic acid 3-hydroxypropyl ester, referred to as CPS-160 (see, e.g., Wei, 2008) was synthesized and tested. […] Thus, CPS-160 was not considered to be an optimal cooling agent for practicing the invention.
# (§2) It has a good safety profile because the expected hydrolysis products are the carboxylic acid and glycerol.
# Thus, water solubility, as embodied in CPS-030, is a key factor for an ideal API.
# [3] = system: closed eyelids; test: Eye wipe test: cooling sensations after wiping test solution over closed eyelids; type: in vivo, human; conditions: for sensations accompanying cooling: 1 mg/mL in 1 or 2% ethanol-water, closed eyelids
# [4] = Stability of test solutions stored at room temperature (retention of cooling activity); type: physicochemical; conditions: saline solution
# Excerpt: as §1, §2
# [5] = system: closed eyelids; test: Case reports: eye wipe in subjects with eye strain or dry eyes syndrome; type: in vivo, human; conditions: person
# Method: A person routinely spent about 12 hour each day in front of a computer monitor and developed headaches and blurred vision. A visit to a general physician gave a diagnosis of eye strain, but the addiction to the computer monitor continued. The subject found some relief by putting a cold wet towel on their face, but the relief was only temporary. They volunteered to test an eye wipe containing 0.8 mL of a 4 mg/mL solution of CPS-030 and was given instructions on how to wipe the solution onto the eyelids with the eyes closed. […] During this time, the subject watched a basketball playoff game on television and noted that they could clearly distinguish scores on the 46 inch (117 cm) HDTV monitor which were previously indecipherable. For example, they could clearly see scores of 65 vs. 66, and of 98 vs. 99. […] The subject continues to use the eye wipes as an aid to their vision on an “as needed basis”, and the improved visual acuity is a reproducible event.
# Their principal complaints were of dryness, itch, and discomfort at the corner of their eyes and blurred vision. These symptoms were present on a daily basis at various levels of intensity. […] It was not clear if they adhered to a strict regimen of self-administration, but they complained of the eye drops running down their cheeks and the expense of the medications. When the symptoms were severe, the subject found some relief by wetting their eyes with cold tap water, but the relief was only temporary. They volunteered to test an eye wipe containing 0.8 mL of a 4 mg/mL solution of CPS-030, and was given instructions on how to apply the solution onto the eyelids with the eyes shut.
# [6] = dry eyes syndrome, eye wipe 0.8 mL of 4 mg/mL
# [7] = eye strain, eye wipe 0.8 mL of 4 mg/mL
smiles,measurement,setting,value
CC(C)[C@@H]1CC[C@@H](C)C[C@H]1C(=O)OCCOCCO [Compound 2],duration of cooling,"[1]; 10 mg/mL, eye wipe",less than 30 minutes
same,cooling intensity,"[1]; 10 mg/mL, eye wipe, scale 0-3",< 2 coolness units
CC(C)[C@@H]1CC[C@@H](C)C[C@H]1C(=O)OCCO [Compound 3],adverse sensations,[1]; higher two doses of 32 to 160 μg/eye range,brief period of warmth sensations on the eye surface and increased lachrymation
same,cooling potency relative to CPS-030,[1],about half the potency of CPS-030
"COC(=O)CNC(=O)[C@@H]1C[C@H](C)CC[C@H]1C(C)C [Compound 10, reference compound]",cooling potency relative to CPS-030,[1],more potent cooling activity than CPS-030
same,solubility in 1 or 2% ethanol-water solution,[2],1000 µg/mL
same,sensations accompanying cooling,[3],without any sensations of wetness or increased visual acuity
COC(=O)[C@@H](C)NC(=O)[C@@H]1C[C@H](C)CC[C@H]1C(C)C [Compound 9],cooling potency relative to CPS-030,[1],more potent cooling activity than CPS-030
same,solubility in 1 or 2% ethanol-water solution,[2],1000 µg/mL
same,sensations accompanying cooling,[3],without any sensations of wetness or increased visual acuity
"CC(C)[C@@H]1CC[C@@H](C)C[C@H]1C(=O)OCC(O)CO (stereo partly drawn) [Compound 1, (1R,2S,5R)-2-isopropyl-5-methyl-cyclohexanecarboxylic acid 2,3-dihydroxy-propyl ester]",sensations accompanying cooling,"[1]; 32 μg, 64 μg and 128 μg per eye, saline, eye wipe",cooling was accompanied by a sensation of “wetness” and increased visual acuity
same,duration of eye refreshment,"[1]; 4.0 mg/mL in saline, 16 μL per eye, sterile pad",approximately 1 hour
same,"sensations of sting, irritation or pain",[1]; all dosages tested (16-128 μg per eye),"no sensations of sting, irritation, or pain"
same,effective dose via eye wipe,[1]; delivered via a 2.0 mg/mL solution in an eye wipe,~32 μg/eye
same,quality of cooling sensation,"[1]; saline, eye wipe",Robust and refreshing cooling
same,stability of solution stored at room temperature,[4],retained biological potency when stored at room temperature for at least three weeks
same,symptomatic relief on as-needed use,"[5]; dry eyes syndrome, as needed for three months",expressed satisfaction at the relief of eye discomfort
same,duration of cooling and soothing sensations,[5]; [6],at least 1 hour
same,onset of cooling and soothing sensations,[5]; [6],Within two minutes
same,sensations reported,[5]; [6],"sensation of “wetness”, and a feeling of soothing and comfort"
same,duration of cooling and soothing sensations,[5]; [7],at least two hours
same,effect on visual acuity,[5]; [7],increase in visual acuity
same,onset of cooling and soothing sensations,[5]; [7],Within two minutes
same,solubility in saline solution,[2],miscible and solubilized in saline solution
"CC(C)[C@@H]1CC[C@@H](C)C[C@H]1C(=O)NCC(=O)OCCCO [CPS-160, 2-[((1R,2S,5R)-2-isopropyl-5-methyl-cyclohexanecarbonyl)-amino]-acetic acid 3-hydroxypropyl ester]",duration of cooling,"[1]; 2 mg/mL in saline, eye wipe",approximately 0.6 hours
same,quality of cooling sensation,"[1]; saline, eye wipe",Robust and refreshing cooling
same,stability of solution stored at room temperature,[4],not stable and became inactive after 2 days
same,solubility in saline solution,[2],solubilized in saline solution
"CCOC(=O)[C@@H](C)NC(=O)[C@@H]1C[C@H](C)CC[C@H]1C(C)C [Compound 12, (R)-2-[((1R,2S,5R)-2-isopropyl-5-methyl-cyclohexanecarbonyl)-amino]-propionic acid ethyl ester]",duration of cooling,"[1]; 1 mg/mL dispersed in saline, eye wipe",approximately 1.5 hours
same,duration of cooling,"[1]; 2 mg/mL in saline, eye wipe",~2.5 h
same,quality of cooling sensation,"[1]; saline, eye wipe",Robust and refreshing cooling
same,side-effect when eyelids get wet after testing,"[1]; solid dispersed in saline, 1 and 2 mg/mL","the cooling sensations returned, sometimes with an intensity that could cause discomfort"
same,cooling sensation,[3]; 30 mg in 0.1 mL ethanol + 7.4 mL glycerol + 7.5 mL water,Mild and persistent cooling
